Test results reported in patent US5962284A, “Acrylamidase enzymes” (Ciba Specialty Chemicals Water Treatments Limited, priority 1997, dated 1999).

How the values were obtained:
[1] = test system: acrylamidase produced by Rhodococcus erythropolis NCIMB 40889; assay: Adipic acid activity assay (amidase activity at pH 4 with added adipic acid); type: biochemical; conditions: pH 4, 50 mM acrylamide, 30° C.
From the text: (§1) For measurement of Km (see below) the same conditions can be used, except that the acrylamide concentration is of course varied. One unit (U) of amidase activity hydrolyses 1 micromole of acrylamido per minute under the above conditions. The specific activity is the amount of units of activity present per dry gram of cell material. The relative activity is the % activity relative to activity at ph 7.
In this specification, comparison of acrylamidase activity in the presence of adipic acid and in the absence of adipic acid is measured by the following adipic acid activity assay:
To an assay mixture at pH 4 as described for measurement of activity at pH 4 and pH 7 is added adipic acid to give the concentrations required. Cell suspension is then added to the assay mixture. The amidase activity of each suspension is then measured. The relative activity is % activity relative to activity in the absence of adipic acid.

[2] = test system: acrylamidase produced by Rhodococcus erythropolis NCIMB 40889; conditions: read-out: Km for acrylamide; pH 4.0, 30° C., cell suspension
From the text: as §1
(§2) In this specification, Km is Km for acrylamide measured at pH 4.0.

[3] = test system: acrylamidase produced by Rhodococcus species NCIMB 40755; conditions: read-out: Km for acrylamide; pH 4.0, 30° C., cell suspension
From the text: as §1, §2

Structure (SMILES)	Relative Activity (%) relative to activity in the absence of adipic acid ([1]; 5 mM adipic acid) [%]	Relative Activity (%) relative to activity in the absence of adipic acid ([1]; 10 mM adipic acid) [%]	Relative Activity (%) relative to activity in the absence of adipic acid ([1]; 15 mM adipic acid) [%]	Relative Activity (%) relative to activity in the absence of adipic acid ([1]; 22.5 mM adipic acid) [%]	Relative Activity (%) relative to activity in the absence of adipic acid ([1]; 25 mM adipic acid) [%]	Relative Activity (%) relative to activity in the absence of adipic acid ([1]; 50 mM adipic acid) [%]	Km [2] [mM]	Km [3] [mM]
O=C(O)CCCCC(=O)O [Adipic Acid, adipic acid]	95	69	38	30	29	12	–	–
C=CC(N)=O [acrylamide]	–	–	–	–	–	–	11.6	6
